PMC9826346, “One‐Pot Chemoenzymatic Synthesis of Microviridin Analogs Containing Functional Tags” (Chembiochem, 2022)
Bridge positions count the residues as written; N and C are the ends. Peptide text beside a SMILES is read from it. * marks the point of attachment. Biotin = O=C1N[C@H]2[C@H](CS[C@H]2CCCCC(=O)*)N1; Dansyl = CN(C)c1cccc2c(S(=O)(=O)*)cccc12; Propargyl = C#CC*

Tests used:
[1] = target: porcine pancreas elastase (Sus scrofa, UniProt P00772); assay: biochemical
Experimental: (§1) Protease inhibition assay: Microviridins were checked for their inhibitory activity against trypsin and elastase. Therefore, microviridin concentrations of 0.01 μM, 0.1 μM, 1 μM, 10 μM and 100 μM were tested. A sample without microviridin was used as control. As substrates N α‐Benzoyl‐DL‐arginine 4‐nitroanilide hydrochloride (BAPNA) was used for the trypsin assay and N‐Succinyl‐Ala‐Ala‐Ala‐p‐nitroanilide (Suc‐AAA‐pNA) for the elastase assays. The trypsin assay was performed with 16.7 μg/mL (approximately 42.7 U/mL) bovine trypsin (Carl Roth (Germany)) and 108.5 μg/mL BAPNA (Sigma‐Aldrich (Germany)) in 50 mM Tris‐HCl, 20 mM CaCl2, 0.5 % DMSO, pH 7.5. The elastase assay was performed with 50 μg/mL (250 mU/mL) porcine pancreas elastase (Sigma‐Aldrich (Germany) and 500 μg/mL Suc‐AAA‐pNA (Sigma‐Aldrich (Germany)) in 50 mM Tris‐HCl, 20 mM CaCl2, pH 7.5. All microviridins were dissolved in water to a concentration of 500 μM except of tricyclic MvB_CP_N(dansyl), which was dissolved in water containing 10 % DMSO. Before adding the substrate, each enzyme was incubated for 5 min with the respective inhibitor at room temperature. Afterwards, the substrate was added, and the assays were incubated for 15 min (elastase assay) and 30 min (trypsin assay) at 37 °C. The enzymatic activity was measured spectrophotometrically (Varioscan Flash, Thermo Scientific) at 410 nm. The assays were done twice for each sample. IC50 values were calculated using the Quest Graph™ IC50 Calculator.[21]

bovine trypsin = bovine trypsin (Bos taurus, UniProt P00760); assay: biochemical
Experimental: as §1

trypsin = settings: read-out: KD for the interaction of trypsin and microviridin J; cited from earlier work
Text: Naturally, microviridins act as competitive inhibitors that bind tightly to their corresponding proteases in a substrate‐like manner, for which turnover is excluded. […] Therefore, the chemical probes that show protease inhibition in the range of the unmodified microviridin derivatives could be expected to work as molecular tools. However, since the activity of dansylated microviridin B is clearly compromised (Table 1), the compound's affinity for elastase might not be strong enough for diagnos ...

Daphnia = settings: microcrustaceans of the genus Daphnia; cited from earlier work
Text: While the bioactivity and mode of action against mammalian serine proteases is well investigated for microviridins[[2a], [8]] and plesiocin,[9] their ecological roles and native targets remain elusive. […] However, neither specific protease targets could be identified, nor could a mode of action be specified. One hypothesis is based on the depletion of the amino acid pool essential for ...

Sequence of bovine trypsin (P00760 24-246): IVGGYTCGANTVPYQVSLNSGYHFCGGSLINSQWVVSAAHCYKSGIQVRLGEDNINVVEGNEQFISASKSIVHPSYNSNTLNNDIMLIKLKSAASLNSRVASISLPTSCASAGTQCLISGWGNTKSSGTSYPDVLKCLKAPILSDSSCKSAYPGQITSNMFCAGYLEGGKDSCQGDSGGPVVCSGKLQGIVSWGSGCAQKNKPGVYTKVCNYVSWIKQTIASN
Sequence of porcine pancreas elastase (P00772 27-266): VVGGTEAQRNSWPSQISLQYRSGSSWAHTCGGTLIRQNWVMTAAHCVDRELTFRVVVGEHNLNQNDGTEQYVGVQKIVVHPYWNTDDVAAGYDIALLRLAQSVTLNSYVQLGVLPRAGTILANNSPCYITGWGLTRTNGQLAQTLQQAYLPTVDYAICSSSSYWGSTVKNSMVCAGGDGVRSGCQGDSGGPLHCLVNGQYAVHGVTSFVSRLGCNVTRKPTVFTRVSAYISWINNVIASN

CC(C)C[C@@H]1NC(=O)[C@@H](NC(=O)[C@@H](NC(=O)CNC(=O)[C@H](Cc2ccccc2)NC(=O)[C@@H](N)CCCCNC(=O)CCCC[C@@H]2SC[C@@H]3NC(=O)N[C@@H]32)[C@@H](C)O)[C@@H](C)OC(=O)C[C@@H]2NC(=O)[C@@H]3COC(=O)CC[C@H](NC(=O)[C@H](Cc4c[nH]c5ccccc45)NC2=O)C(=O)N[C@H](C(=O)N[C@@H](Cc2ccc(O)cc2)C(=O)O)CCC(=O)NCCCC[C@H](NC1=O)C(=O)N[C@@H](Cc1ccc(O)cc1)C(=O)N1CCC[C@H]1C(=O)N3 [MvB_CP_N(Bio)cy3 (5)] (H-K(Biotin)FGTTLKYPSDWEEY-OH; ester 5-11, 10-13; lactam 7-14)
IC50 [1]: 1240 ± 640 nM

CC(C)C[C@@H]1NC(=O)[C@@H](NC(=O)[C@@H](NC(=O)CNC(=O)[C@H](Cc2ccccc2)NS(=O)(=O)c2cccc3c(N(C)C)cccc23)[C@@H](C)O)[C@@H](C)OC(=O)C[C@@H]2NC(=O)[C@@H]3COC(=O)CC[C@H](NC(=O)[C@H](Cc4c[nH]c5ccccc45)NC2=O)C(=O)N[C@H](C(=O)N[C@@H](Cc2ccc(O)cc2)C(=O)O)CCC(=O)NCCCC[C@H](NC1=O)C(=O)N[C@@H](Cc1ccc(O)cc1)C(=O)N1CCC[C@H]1C(=O)N3 [MvB_CP_N(Dansyl)cy3 (6)] (Dansyl-FGTTLKYPSDWEEY-OH; ester 4-10, 9-12; lactam 6-13)
IC50 [1]: 28000 ± 7170 nM

CC(C)C[C@@H]1NC(=O)[C@@H](NC(=O)[C@@H](NC(=O)CNC(=O)[C@@H](N)Cc2ccccc2)[C@@H](C)O)[C@@H](C)OC(=O)C[C@@H]2NC(=O)[C@@H]3COC(=O)CC[C@H](NC(=O)[C@H](Cc4c[nH]c5ccccc45)NC2=O)C(=O)N[C@H](C(=O)N[C@@H](Cc2ccc(O)cc2)C(=O)O)CCC(=O)NCCCC[C@H](NC1=O)C(=O)N[C@@H](Cc1ccc(O)cc1)C(=O)N1CCC[C@H]1C(=O)N3 [MvB_CPcy3 (4)] (H-FGTTLKYPSDWEEY-OH; ester 4-10, 9-12; lactam 6-13)
IC50 [1]: 330 ± 20 nM

CC[C@H](C)[C@H](NC(=O)[C@@H](N)CCCCNC(=O)CCCC[C@@H]1SC[C@@H]2NC(=O)N[C@@H]21)C(=O)N[C@@H](CO)C(=O)N[C@@H]1C(=O)N[C@@H](CCCNC(=N)N)C(=O)N[C@H]2CCCCNC(=O)CC[C@@H](C(=O)N[C@@H](Cc3c[nH]c4ccccc34)C(=O)O)NC(=O)[C@@H]3CCC(=O)OC[C@H](NC(=O)[C@@H]4CCCN4C(=O)[C@H](Cc4ccc(O)cc4)NC2=O)C(=O)N[C@@H](CC(=O)O[C@@H]1C)C(=O)N[C@@H](Cc1c[nH]c2ccccc12)C(=O)N3 [MvJ_CP_N(Bio)cy3 (2)] (H-K(Biotin)ISTRKYPSDWEEW-OH; ester 4-10, 9-12; lactam 6-13)
IC50 (bovine trypsin): 3530 ± 300 nM

C#CCOc1ccc(C[C@H](N)C(=O)N[C@H](C(=O)N[C@@H](CO)C(=O)N[C@@H]2C(=O)N[C@@H](CCCNC(=N)N)C(=O)N[C@H]3CCCCNC(=O)CC[C@@H](C(=O)N[C@@H](Cc4c[nH]c5ccccc45)C(=O)O)NC(=O)[C@@H]4CCC(=O)OC[C@H](NC(=O)[C@@H]5CCCN5C(=O)[C@H](Cc5ccc(O)cc5)NC3=O)C(=O)N[C@@H](CC(=O)O[C@@H]2C)C(=O)N[C@@H](Cc2c[nH]c3ccccc23)C(=O)N4)[C@@H](C)CC)cc1 [MvJ_CP_N(Prop)cy3 (3)] (H-Y(Propargyl)ISTRKYPSDWEEW-OH; ester 4-10, 9-12; lactam 6-13)
IC50 (bovine trypsin): 1640 ± 120 nM

CC[C@H](C)[C@H](N)C(=O)N[C@@H](CO)C(=O)N[C@@H]1C(=O)N[C@@H](CCCNC(=N)N)C(=O)N[C@H]2CCCCNC(=O)CC[C@@H](C(=O)N[C@@H](Cc3c[nH]c4ccccc34)C(=O)O)NC(=O)[C@@H]3CCC(=O)OC[C@H](NC(=O)[C@@H]4CCCN4C(=O)[C@H](Cc4ccc(O)cc4)NC2=O)C(=O)N[C@@H](CC(=O)O[C@@H]1C)C(=O)N[C@@H](Cc1c[nH]c2ccccc12)C(=O)N3 [MvJ_CPcy3 (1)] (H-ISTRKYPSDWEEW-OH; ester 3-9, 8-11; lactam 5-12)
IC50 (bovine trypsin): 1090 ± 90 nM

microviridin J
Kd (trypsin): 680 nM
Effect on Daphnia (Daphnia): lethal molting disruption
